Test [1] addresses T1, WRN helicase (aa N517-P1238) (Homo sapiens, UniProt Q14191).
T1 construct: The core helicase motif of the WRN protein (aa N517-P1238) was produced for this assay; His (N); ZZ (N); 3C protease cleavage site (N); made in house; host or cells: Sf21 insect cells (baculovirus; virus and BIICs made in SF9)
In words: WRN ATPase assay (DNA dependent ATP hydrolysis, ADP-Glo). The test is classed as biochemical. The conditions noted are these: 3 hours pre-incubation, 300 micromolar ATP, FLAP26 DNA; geometric mean of at least 2. A digest of the protocol: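 DNA-dependent ATP hydrolysis detected as ADP by ADP-Glo luminescence, using 300 μM ATP, 0.2 nM FLAP26 substrate and 10 nM WRN aa N517-P1238 (Tris pH 7.5 buffer, 2 mM MgCl2, 50 mM NaCl). IC50s fitted from normalized duplicate half-log dilutions; reported as geometric means of at least 2 replicates.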
(In ADP-Glo the light output rises with the ADP produced.)

The next test has as its system SW48 cells. In words: Proliferation assay SW48 (CellTiterGlo). The test is classed as cell-based. The conditions noted are these: Homo sapiens, SW48, 96 h, SW48 colon carcinoma cells, 96 hours, CellTiterGlo; geometric mean of at least 2; read-out: Proliferation Assay SW48 GI50. A digest of the protocol: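 Read-out is CellTiterGlo luminescence after 96 hours of compound exposure, with % growth calculated against day-0 and vehicle-treated ATP levels. SW48 seeded at 2,000 cells/well, dosed next day with eight 3-fold serial dilutions, 0.1% DMSO. GI50 reported as geometric mean, at least 2 replicates.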

Another test concerns DLD1-WRN-KO cells. In words: Proliferation assay DLD1-WRN-KO (CellTiterGlo, off-target effects). Type of test: cell-based. Particulars: 96 hours, geometric mean of at least 2. A digest of the protocol:
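DLD1 cells with CRISPR knockout of WRN were exposed overnight-seeded to eight 3-fold compound dilutions (0.1% DMSO) for 96 h at 37 °C. Viability was read as ATP by CellTiterGlo luminescence against a day-0 plate, giving GI50 and residual viability at top concentration.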

T1 sequence (Q14191 517-1238): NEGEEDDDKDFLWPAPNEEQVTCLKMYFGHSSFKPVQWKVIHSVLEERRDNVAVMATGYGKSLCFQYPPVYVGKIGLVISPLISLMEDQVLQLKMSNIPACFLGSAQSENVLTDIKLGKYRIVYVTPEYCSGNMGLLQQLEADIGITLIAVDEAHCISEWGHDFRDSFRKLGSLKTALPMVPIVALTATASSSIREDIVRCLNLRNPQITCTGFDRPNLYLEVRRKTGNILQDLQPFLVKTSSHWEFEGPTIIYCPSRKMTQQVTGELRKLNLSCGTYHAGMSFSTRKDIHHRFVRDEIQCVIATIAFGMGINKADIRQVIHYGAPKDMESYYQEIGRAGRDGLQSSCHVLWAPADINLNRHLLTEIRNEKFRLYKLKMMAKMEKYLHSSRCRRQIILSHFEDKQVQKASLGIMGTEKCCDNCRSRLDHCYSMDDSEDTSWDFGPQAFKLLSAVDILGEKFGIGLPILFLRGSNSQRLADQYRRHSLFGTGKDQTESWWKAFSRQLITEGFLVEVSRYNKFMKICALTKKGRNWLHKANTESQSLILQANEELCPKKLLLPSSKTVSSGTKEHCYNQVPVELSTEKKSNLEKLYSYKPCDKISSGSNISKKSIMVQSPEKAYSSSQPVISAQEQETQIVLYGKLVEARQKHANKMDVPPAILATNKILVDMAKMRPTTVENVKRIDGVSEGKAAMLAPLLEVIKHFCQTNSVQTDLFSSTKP

Turning to `CC(=O)N1CCN(c2c(C)n(CC(=O)Nc3ccc(Cl)c(Cl)c3)c3nc(-c4ccc(CN(C)C(=O)OC5CC/C=C/CCC5)cc4)nn3c2=O)CC1` (stereo not drawn) [Example 102, (E)-cyclooct-4-en-1-yl (4-(6-(4-acetylpiperazin-1-yl)-4-(2-((3,4-dichlorophenyl)amino)-2-oxoethyl)-5-methyl-7-oxo-4,7-dihydro-[1,2,4]triazolo[1,5-a]pyrimidin-2-yl)benzyl)(methyl)carbamate], the concentration for half-maximal inhibition (IC50) (commonly the point on the concentration scale where inhibition reaches its midpoint) in test [1] is over 3000 nM. For the same compound, the GI50 was found to be 7 µM in the test on SW48 cells and 5 µM in the test with DLD1-WRN-KO cells.
Compound `CC(=O)N1CCN(c2c(C)n(CC(=O)Nc3cc(F)c(C(F)(F)F)c(F)c3)c3nc(C4=CCOCC4)nn3c2=O)CC1` [Example 103, 2-(6-(4-acetylpiperazin-1-yl)-2-(3,6-dihydro-2H-pyran-4-yl)-5-methyl-7-oxo-[1,2,4]triazolo[1,5-a]pyrimidin-4(7H)-yl)-N-(3,5-difluoro-4-(trifluoromethyl)phenyl)acetamide] had a half-inhibitory concentration (IC50) in test [1] of 4000 nM. The GI50 in the test on SW48 cells is 4 µM; in the test on DLD1-WRN-KO cells it was over 10 µM.
In the case of `CC(=O)N1CCN(c2c(C)n(CC(=O)Nc3ccc(C(F)(F)F)cc3)c3nc(C4=COCCO4)nn3c2=O)CC1` [Example 104, 2-(6-(4-acetylpiperazin-1-yl)-2-(5,6-dihydro-1,4-dioxin-2-yl)-5-methyl-7-oxo-[1,2,4]triazolo[1,5-a]pyrimidin-4(7H)-yl)-N-(4-(trifluoromethyl)phenyl)acetamide], the IC50 in test [1] is 800 nM. The GI50 was 8 µM in the test on SW48 cells and over 10 µM in the test on DLD1-WRN-KO cells.
The compound `CC(=O)N1CCN(c2c(C)n(CC(=O)Nc3ccc(C(F)(F)F)cc3)c3nc(C4=CCN(C(=O)OC(C)(C)C)CC4)nn3c2=O)CC1` [Example 105, tert-butyl 4-(6-(4-acetylpiperazin-1-yl)-5-methyl-7-oxo-4-(2-oxo-2-((4-(trifluoromethyl)phenyl)amino)ethyl)-4,7-dihydro-[1,2,4]triazolo[1,5-a]pyrimidin-2-yl)-3,6-dihydropyridine-1(2H)-carboxylate] gave an IC50 in test [1] of 100 nM. Moreover, the results for the GI50 in the test with SW48 cells and in the test on DLD1-WRN-KO cells were 0.8 µM and 5 µM, respectively.
With `CC(=O)N1CCN(c2c(C)n(CC(=O)Nc3ccc(C(F)(F)F)cc3)c3nc(-c4cccnc4)nn3c2=O)CC1` [Example 106, 2-(6-(4-acetylpiperazin-1-yl)-5-methyl-7-oxo-2-(pyridin-3-yl)-[1,2,4]triazolo[1,5-a]pyrimidin-4(7H)-yl)-N-(4-(trifluoromethyl)phenyl)acetamide], the midpoint of inhibition in test [1], the IC50, lay at 100 nM. Further, the results for the GI50 with SW48 cells and in the test with DLD1-WRN-KO cells were 0.2 µM and over 10 µM, respectively.
In the same order, the values of `COC1CC=C(c2nc3n(CC(=O)Nc4ccc(C(F)(F)F)cc4)c(C)c(N4CCN(C(C)=O)CC4)c(=O)n3n2)CC1` (stereo not drawn) [Example 107, 2-(6-(4-acetylpiperazin-1-yl)-2-(4-methoxycyclohex-1-en-1-yl)-5-methyl-7-oxo-[1,2,4]triazolo[1,5-a]pyrimidin-4(7H)-yl)-N-(4-(trifluoromethyl)phenyl)acetamide] are 200 nM, 3 µM and over 10 µM.
Regarding `CC(=O)N1CCN(c2c(C)n(CC(=O)Nc3cc(Cl)c(C(F)(F)F)cc3C)c3nc(C4=CCOCC4)nn3c2=O)CC1` [Example 108, 2-(6-(4-acetylpiperazin-1-yl)-2-(3,6-dihydro-2H-pyran-4-yl)-5-methyl-7-oxo-[1,2,4]triazolo[1,5-a]pyrimidin-4(7H)-yl)-N-(5-chloro-2-methyl-4-(trifluoromethyl)phenyl)acetamide], inhibition in test [1] was half-maximal at 200 nM (IC50). The GI50 in the test on SW48 cells is 0.9 µM; in the test with DLD1-WRN-KO cells, over 10 µM.
As for `CC(=O)N1CCN(c2c(C)n(CC(=O)Nc3ccc(C(F)(F)F)cc3)c3nc(C4=CCCCO4)nn3c2=O)CC1` [Example 109, 2-(6-(4-acetylpiperazin-1-yl)-2-(3,4-dihydro-2H-pyran-6-yl)-5-methyl-7-oxo-[1,2,4]triazolo[1,5-a]pyrimidin-4(7H)-yl)-N-(4-(trifluoromethyl)phenyl)acetamide], in test [1], it took 200 nM to reach half-maximal inhibition (IC50). For the same compound, the GI50 in the test with SW48 cells was 4 µM; with DLD1-WRN-KO cells it was over 10 µM.

These data come from patent US20260250289A1, “BICYCLIC HETEROCYCLES AND THEIR USE AS WRN INHIBITORS” (Novartis AG, priority 2022, published 2026).
